We go through 6 compounds from patent publication US9040691B2, “Hydroxymethylaryl-substituted pyrrolotriazines as ALK1 inhibitors” (BAYER INTELLECTUAL PROPERTY GMBH, priority 2011, dated 2015).

Assay [1] concerns hSmad7 mRNA in BMP9-stimulated HMVEC. As to the kind of experiment: Smad7 target gene induction: HMVEC cell assay and TaqMan expression analysis. Type of assay: cell-based. As to conditions: Homo sapiens, hBMP9 stimulation, Smad7 mRNA by TaqMan. The method, then:
B-2a. Smad7 Target Gene Induction: HMVEC Cell Assay and TaqMan Expression Analysis
Activation of ALK1 receptors by BMP9 induces the Smad1/5 signalling pathway and enhances expression of target genes Smad6, Smad7 and Id-1. Induction of Smad7-mRNA in BMP9-stimulated endothelial cells was determined to monitor the cellular potency of ALK1 kinase inhibitors.
Human microvascular endothelial cells (IIMVECadult, Cell Systems, St. Katharinen) were seeded in complete ENGS MV medium with all supplements (LifeLine Cell Technology) in 96 well plates with 10 000 cells per well. After 4 h incubation at 37° C. and 7.5% CO2 in a humidified incubator, medium was replaced with minimal medium (ENGS MV without supplements containing 0.02% FCS). After 16 h, test compounds or medium (controls) were added to the cultures, followed 30 min later by addition of hBMP9 (R&D Systems). Medium was removed 1 to 4 h later, plates were gently washed with phosphate-buffered saline, and cells were lysed with 150 μl per well of ice-cold RLT buffer (Qiagen).
Total cellular RNA was isolated with the Trizol® reagent protocol according to the manufacturer's specifications (Invitrogen, USA) and treated with DNAseI to remove genomic DNA contamination.
For relative quantitation of the mRNA distribution of hSmad7, total RNA from each sample was first reverse-transcribed using the ImProm-II Reverse Transcription System (Promega, USA) according to the manufacturer's protocol. The final volume was adjusted to 200 μl with water.
For relative quantitation of selected mRNA, the Applied Bioscience ABI 7900HT Sequence Detection System was used according to the manufacturer's specifications and protocols. PCR reactions were set up to quantitate hSmad7- and the housekeeping gene L32-mRNA. Forward and reverse primers and probes for hSmad7 and L32 were designed using the Applied Bioscience ABI Primer Expressim software and were synthesized by Eurogentec (Belgium). The hSmad7 forward primer sequence was: Primer 1 (SEQ ID NO 1). The hSmad7 reverse primer sequence was: Primer 2 (SEQ ID NO 2). Probe 1 (SEQ ID NO 3), labelled with FAM as the reporter dye and TAMRA as the quencher, was used as a probe for hSmad7. The L32 forward primer sequence was: Primer 3 (SEQ ID NO 4). The L32 reverse primer sequence was: Primer 4 (SEQ ID NO 5). Probe 2 (SEQ ID NO 6), labelled with FAM as the reporter dye and TAMRA as the quencher, was used as a probe for L32.
The following reagents were prepared in a total of 20 μl added per well: 1× qPCR-MasterMix (Eurogentec, Belgium) and hSmad7 forward and reverse primers each at 200 nM, 200 nM hSmad7 FAM/TAMRA-labelled probe 1 (SEQ ID NO 3), and 5 μl of template cDNA. Correspondingly, a second mix in a total of 20 μl was prepared using L32 FAM/TAMRA-labelled probe 2 (SEQ ID NO 6) and L32 forward and reverse primers added per well in parallel samples.
Thermal cycling parameters were 2 min at 50° C., followed by 10 min at 95° C., followed by 40 cycles of melting at 95° C. for 15 sec and annealing/extending at 60° C. for 1 min.
Calculation of Relative Expression:
The Ct (cycle threshold) values were calculated from the turning point of PCR product quantity curves by the ΔΔCt method (delta-delta Ct): ΔCt=CthSmad7−CtL32; relative expression=2^(15-ΔCt).
IC50 values of test compounds were calculated on basis of relative Smad7 expressions at different compound concentrations.
Background: Quantitative PCR measures a nucleic acid by following its amplification.

The next assay has as its target ALK1 kinase (Homo sapiens (Human), UniProt P37023). As to the kind of experiment: In vitro enzyme inhibition using scintillation of incorporated radio label (flashplate assay). Type of assay: biochemical. The following applies: biotinylated α-casein, 33P-ATP, 500 nM ATP. As for the experimental part: B-1a. In Vitro Enzyme Inhibition Using Scintillation of Incorporated Radio Label (Flashplate Assay)
Test compounds diluted in DMSO are mixed with a suitable substrate/co-substrate (here: biotinylated α-casein and ^33P-ATP) in a corresponding assay buffer. Addition of the enzyme of interest (here: ALK1 kinase) starts the enzyme reaction. The enzyme-catalyzed incorporation of radio label into the substrate is measured via scintillation. Incorporated radio label is separated from free radio label via specific binding of the biotinylated substrate to strepavidin-coated microtiter plates (flashplates) and concomitant washing steps. The scintillation signal intensity (counts per minutes, cpm) is proportional to the enzyme activity. Enzyme inhibition results in a decreased signal intensity. IC50 values of the test compounds are determined by cpm-versus-[I] plots.
Reaction buffer contains 50 mM Tris pH 8.0 (Sigma), 1 mM MnCl2 (Sigma), 0.01% Nonidet P40 (Fluka), 0.5× Complete EDTA-free protease inhibitors (Roche; contains a mixture of several protease inhibitors for the inhibition of serine and cysteine (but not metallo-) proteases; 1 tablet contains protease inhibitors sufficient for a 50 ml cell extract; the concentration used in this assay corresponds to 1 tablet in 100 ml).
• 1.) Stop solution: Dulbecco's PBS (PAA, Pasching, Austria), 25 mM EDTA (Sigma), 25 μM ATP (Roche), 0.05% Triton X-100 (Sigma); • 2.) Saturation buffer: Dulbecco's PBS (PAA, Pasching, Austria), 100 μM ATP (Roche), 0.2% Triton X-100 (Sigma); • 3.) Wash buffer: Dulbecco's PBS (PAA, Pasching, Austria). Enzyme Solution:
ALK1 (Invitrogen, Paisley, United Kingdom) stock solution (35.7 ng/μl) is diluted to 4 ng/μl; final concentration in the reaction is 1 ng/μl.
Dephosphorylated α-casein (Sigma) is biotinylated according to the manufacturer's protocol (Pierce, Bonn, Germany) resulting in a stock solution of 61.6 μM. Briefly, EZ-Link® Biotin reagent (sulfosuccinimidyl-6-(biotinamido)hexanoate; Pierce, Bonn, Germany) is added in equal molarity to α-casein and incubated on ice for 2 h. Afterwards, the biotin reagent is removed by dialysis (2×2 h and overnight).
A 100 mM solution of cold (unlabelled) ATP (Roche) is diluted 1:100 before each test. For the substrate mix, α-casein is diluted to 2.22 μM resulting in a final concentration of 1 μM α-casein in the reaction. Additionally, cold ATP is added to give a 1.11 μM solution which results in a final concentration of 500 nM in the reaction.
Radioactive ATP Solution:
The stock solution (9.25 MBq/25 μl of ^33P-ATP; Perkin Elmer, Rodgau, Germany) is diluted to 651.2 Bq/μl.
Compounds are dissolved in 100% DMSO (10 mM stock solution) and diluted to 2 mM. Further dilutions are made stepwise 1:3.16 in DMSO.
A volume of 9 μl substrate solution is provided into each well of a 384 well microliter plate (Greiner Bio-One, Solingen, Germany), 1 μl compound solution and 5 μl of the radioactive ATP solution are added. Enzyme reaction starts with addition of 5 μl of enzyme solution. The mixture is incubated for 60 minutes at room temperature and then stopped by addition of 10 μl stop solution. The 384 well microliter flashplates (Perkin Elmer, Rodgau, Germany) are saturated with 50 μl saturation buffer per well for at least 60 minutes. Subsequently, a volume of 20 μl is discarded and replaced with 20 μl of the stopped ALK1 reaction mixture. Binding of biotinylated substrate to the flashplate is allowed for by overnight incubation at room temperature. Bound substrate is separated from unbound components through repeated washing steps (3×50 μl washing buffer per well). Finally, 50 μl washing buffer is added, and the scintillation signal (cpm) is measured in a suitable counter (Perkin Elmer, Rodgau, Germany).

The subject of assay [2] is hSmad7 mRNA in BMP9-stimulated HUVEC. The experiment in a line: Smad7 target gene induction: HUVEC cell assay and TaqMan expression analysis. As to conditions: 1 ng/ml BMP9 for 3 h, Smad7 mRNA by TaqMan. Type of assay: cell-based, human. As for the experimental part: B-2b. Smad7 Target Gene Induction: HUVEC Cell Assay and TaqMan Expression Analysis
The in vitro potency of ALK1 inhibitors was tested in a cell-based assay. Bone morphogenetic protein 9 (BMP9) induces Smad7 mRNA expression in human vascular endothelial cells (HUVEC) via activation of ALK1.
1.5×10^4 passage 2 HUVECs (Lonza, Basel, Switzerland) per well were seeded in a 96-well plate in EBM-2 medium containing EGM-2 additives and growth factors (Lonza, CC-3156 and CC-4176). After 4 h, the medium was changed to EBM-2 with 0.2% fetal calf serum (FCS) and the cells were starved for 20 h in a humidified incubator at 37° C., 5% CO2. Test compounds were added at 11 different concentrations between 0 and 10 000 nM one hour prior to stimulation of the cells for 3 h with recombinant human BMP9 protein at 1 ng/ml (dissolved in 4 mM hydrochloric acid, 0.1% BSA at 10 μg/ml; R&D Systems, Minneapolis, Minn., USA, 3209BP). Medium was removed, and the cells were lysed in 100 μl RLT buffer (Qiagen, Hilden, Germany). RNA was isolated using the Qiagen RNeasy 96 Kit (order-No. 74182) according to manufacturer's instructions and eluted from the columns with 65 μl RNAse-free water. Reverse transcription for quantitative RT-PCR was carried out with the Omniscript Kit (Qiagen, 205113) in RNAse-free 96-well round-bottom plates. Per well, 6.8 μl of a reaction master mix containing 2 μl 10×RT-buffer, 2 μl dNTPs (5 mM each), 1.6 μl random primer N6 (125 μM), 0.25 μl Rnase Out (40 U/μl) and 1 μl Omniscript Reverse Transcriptase were added. After addition of 13.2 μl of the RNA/water mixture, plate contents were mixed, incubated for 1 h at 37° C. and the total volume adjusted to 100 μl in each well by addition of 80 μl RNAse-free water.
The quantification of human Smad7 mRNA was carried out on a TaqMan using the Eurogentec qPCR Mastermix Plus (RT-QP2X-03-075+; Cologne, Germany) and employing human L32 as housekeeping reference mRNA. Per qPCR reaction, 2.8 μl primer mix, 10 μl master mix, 2.2 μl water and 5 μl cDNA were added. Thermal cycling parameters were 2 min at 50° C., followed by 10 min at 95° C., followed by 40 cycles of melting at 95° C. for 15 sec and annealing/extending at 60° C. for 1 min.
Smad7 mRNA levels induced by 1 ng/ml BMP9 without the addition of any inhibitor were set at 100% induction, and % inhibition was calculated for each test compound with this value. For each test compound, every value was determined in quadruplicate. The IC50 values were determined using Microsoft Excel. The fitting method used was a weighted, unconstrained ML-fit.

Chain of ALK1 kinase (P37023 22-503): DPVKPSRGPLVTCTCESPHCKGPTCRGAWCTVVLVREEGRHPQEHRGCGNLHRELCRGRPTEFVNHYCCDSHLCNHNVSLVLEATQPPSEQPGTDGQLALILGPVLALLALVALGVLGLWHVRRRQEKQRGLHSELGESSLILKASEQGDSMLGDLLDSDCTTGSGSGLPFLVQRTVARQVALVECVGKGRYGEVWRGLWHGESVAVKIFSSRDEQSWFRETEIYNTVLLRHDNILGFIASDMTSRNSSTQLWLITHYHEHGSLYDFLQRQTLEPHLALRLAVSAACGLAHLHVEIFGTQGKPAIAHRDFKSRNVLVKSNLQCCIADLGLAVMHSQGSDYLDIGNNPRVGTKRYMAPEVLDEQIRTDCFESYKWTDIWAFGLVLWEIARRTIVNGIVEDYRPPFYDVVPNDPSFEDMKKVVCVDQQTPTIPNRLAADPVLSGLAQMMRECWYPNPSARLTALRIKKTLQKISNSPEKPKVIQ

By IC50 is commonly meant the point on the concentration scale where inhibition reaches its midpoint. A higher IC50 goes with a need for much substance. In turn, `Nc1ncnn2c(C3CCNC3)cc(-c3cc(F)c(CO)c(F)c3)c12` (racemic) [Example 8, rac-{4-[4-Amino-7-(pyrrolidin-3-yl)pyrrolo[2,1-f][1,2,4]triazin-5-yl]-2,6-difluorophenyl}methanol] gave an IC50 in assay [1] of 60 nM. In the case of `COc1cc(-c2cc(C(O)C3CC3)n3ncnc(N)c23)ccc1CO` (single isomer, unassigned; ent-4) [Example 42, ent-4-Amino-5-[4-(hydroxymethyl)-3-methoxyphenyl]pyrrolo[2,1-f][1,2,4]triazin-7-yl}(cyclopropyl)methanol (enantiomer 2)], the concentration for half-maximal inhibition (IC50) against ALK1 kinase stood at 1.2 nM; in assay [2], 6.6 nM. On the same counts, the results for `COc1cc(-c2cc(C(O)C3CC3)n3ncnc(N)c23)ccc1CO` (single isomer, unassigned; ent-4) [Example 41, ent-4-Amino-5-[4-(hydroxymethyl)-3-methoxyphenyl]pyrrolo[2,1-f][1,2,4]triazin-7-yl}(cyclopropyl)methanol (enantiomer 1)] are 3.5 nM and 77 nM. In the case of `COc1cc(-c2cc(C3CCCNC3)n3ncnc(N)c23)cc(F)c1CO` (centres unmarked) [Example 30, {4-[4-Amino-7-(piperidin-3-yl)pyrrolo[2,1-f][1,2,4]triazin-5-yl]-2-fluoro-6-methoxyphenyl}-methanol], the IC50 amounted to 2 nM on ALK1 kinase and 51 nM in assay [2] (Homo sapiens, 3 h). Regarding `COc1cc(-c2cc(C(O)C3CC3)n3ncnc(N)c23)ccc1CO` (racemic) [Example 40, rac-{4-Amino-5-[4-(hydroxymethyl)-3-methoxyphenyl]pyrrolo[2,1-f][1,2,4]triazin-7-yl}(cyclopropyl)methanol], the IC50 against ALK1 kinase was 3.2 nM; in assay [2] (Homo sapiens, 3 h), 62 nM. Take `CC(C)c1cc(-c2cc(F)c(CO)c(F)c2)c2c(N)ncnn12` [Example 43, [4-(4-Amino-7-isopropylpyrrolo[2,1-f][1,2,4]triazin-5-yl)-2,6-difluorophenyl]methanol]: the IC50 against ALK1 kinase is 1.9 nM; in assay [2] (Homo sapiens, 3 h) it was 27 nM.
